In US8247211B2, “Glycopeptide antibiotics” (American Cyanamid Company, priority 2001, dated 2012):

Key:
Assay in all cases: In vitro antibacterial evaluation: minimum inhibitory concentration (MIC), broth dilution method
Assay type in all cases: cell-based
Escherichia coli [1] = tested on: Escherichia coli
Summary of the method: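 MIC read as lowest drug level preventing visible growth. Organisms at 5×10^5 CFU/mL were exposed to a 64-0.06 μg/mL dilution series in Muller-Hinton II […] following NCCLS broth dilution standard M7-A2.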

Streptococcus sp. = conditions: 18 hours at 35° C.
Summary of the method: (§1)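 Inoculum: 5×10^5 CFU/mL. Range: 64-0.06 μg/mL. Medium: Muller-Hinton II […]; NCCLS M7-A2 broth dilution. Endpoint: lowest concentration inhibiting growth. Strains include methicillin-, penicillin- and/or vancomycin-resistant clinical isolates.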

Enterococcus sp. = tested on: Enterococcus sp.
Summary of the method: as §1

Staphylococcus sp. = conditions: 18 hours at 35° C.
Summary of the method: as §1

Escherichia coli [2] = tested on: Escherichia coli; remark: listed apart in the source

α-O-[(Benzylamino)carbonyl]-cyclo[glycyl-β-methylphenylalanyl-O-(4-O-hexopyranosylhexopyranosyl)tyrosyl-3-(2-iminoimidazolidin-4-yl)seryl-3-(3-hexopyranosyl-2-iminoimidazolidin-4-yl)serylseryl] [Example 257a]
1 µg/mL: MIC Streptococcus pneumoniae (ATCC 6301) (Streptococcus sp.; Streptococcus pneumoniae (ATCC 6301)) | MIC Streptococcus pneumoniae (GC 1894) (Streptococcus sp.; Streptococcus pneumoniae (GC 1894)) | MIC Streptococcus pneumoniae (ATCC 6301) (Streptococcus sp.; broth dilution, strain ATCC 6301) | MIC Streptococcus pneumoniae (GC 1894) (Streptococcus sp.; broth dilution, strain GC 1894)
0.12 µg/mL: MIC Streptococcus pyogenes (GC 4563) (Streptococcus sp.; Streptococcus pyogenes (GC 4563)) | MIC Streptococcus pyogenes (GC 4563) (Streptococcus sp.; broth dilution, strain GC 4563)
32 µg/mL: MIC Coagulase Negative Staphylococcus (GC 4551) (Staphylococcus sp.; Coagulase Negative Staphylococcus (GC 4551))
4 µg/mL: MIC Streptococcus pneumoniae (GC 4565) (Streptococcus sp.; Streptococcus pneumoniae (GC 4565)) | MIC Streptococcus pneumoniae (GC 4565) (Streptococcus sp.; broth dilution, strain GC 4565) | MIC Coagulase Negative Staphylococcus (GC 6257) (Staphylococcus sp.; Coagulase Negative Staphylococcus (GC 6257))
>0.5 µg/mL: MIC Escherichia coli (GC 4559) (Escherichia coli [1]; Escherichia coli (GC 4559)) | MIC Enterococcus avium (GC 4558) (Enterococcus sp.; Enterococcus avium (GC 4558)) | MIC Enterococcus faecalis (ATCC 29212) (Enterococcus sp.; Enterococcus faecalis (ATCC 29212)) | MIC Enterococcus faecalis (GC 2242) (Enterococcus sp.; Enterococcus faecalis (GC 2242), 18 hours at 35° C.) | MIC Enterococcus faecalis (GC 3059) (Enterococcus sp.; Enterococcus faecalis (GC 3059), 18 hours at 35° C.) | MIC Enterococcus faecalis (GC 4552) (Enterococcus sp.; Enterococcus faecalis (GC 4552), 18 hours at 35° C.) | MIC Enterococcus faecalis (GC 4553) (Enterococcus sp.; Enterococcus faecalis (GC 4553)) | MIC Enterococcus faecalis (GC 4554) (Enterococcus sp.; Enterococcus faecalis (GC 4554)) | MIC Enterococcus faecalis (GC 6189) (Enterococcus sp.; Enterococcus faecalis (GC 6189)) | MIC Enterococcus faecalis (ATCC 29212) (Enterococcus sp.; broth dilution, 18 hours at 35° C., strain ATCC 29212) | MIC Enterococcus faecalis (GC 2242) (Enterococcus sp.; broth dilution, 18 hours at 35° C., strain GC 2242) | MIC Enterococcus faecalis (GC 3059) (Enterococcus sp.; broth dilution, 18 hours at 35° C., strain GC 3059) | MIC Enterococcus faecalis (GC 4552) (Enterococcus sp.; broth dilution, 18 hours at 35° C., strain GC 4552) | MIC Enterococcus faecalis (GC 4553) (Enterococcus sp.; broth dilution, 18 hours at 35° C., strain GC 4553) | MIC Enterococcus faecalis (GC 4554) (Enterococcus sp.; broth dilution, 18 hours at 35° C., strain GC 4554) | MIC Enterococcus avium (GC 4558) (Enterococcus sp.; broth dilution, 18 hours at 35° C., strain GC 4558) | MIC Enterococcus faecalis (GC 6189) (Enterococcus sp.; broth dilution, 18 hours at 35° C., strain GC 6189) | MIC Escherichia coli (ATCC 25922) (Escherichia coli [2])
0.5 µg/mL: MIC Escherichia coli (GC 4560) (Escherichia coli [1]; Escherichia coli (GC 4560)) | MIC Enterococcus faecalis (GC 2691) (Enterococcus sp.; Enterococcus faecalis (GC 2691), 18 hours at 35° C.) | MIC Enterococcus faecalis (GC 2691) (Enterococcus sp.; broth dilution, 18 hours at 35° C., strain GC 2691) | MIC Staphylococcus aureus (ATCC 29213) (Staphylococcus sp.; Staphylococcus aureus (ATCC 29213)) | MIC Staphylococcus aureus (GC 1131) (Staphylococcus sp.; Staphylococcus aureus (GC 1131)) | MIC Staphylococcus aureus (GC 3051) (Staphylococcus sp.; Staphylococcus aureus (GC 3051)) | MIC Staphylococcus aureus (GC 3053) (Staphylococcus sp.; Staphylococcus aureus (GC 3053)) | MIC Staphylococcus aureus (GC 4541) (Staphylococcus sp.; Staphylococcus aureus (GC 4541)) | MIC Staphylococcus aureus (GC 4542) (Staphylococcus sp.; Staphylococcus aureus (GC 4542)) | MIC Staphylococcus aureus (GC 4544) (Staphylococcus sp.; Staphylococcus aureus (GC 4544)) | MIC Staphylococcus aureus (GC 4545) (Staphylococcus sp.; Staphylococcus aureus (GC 4545)) | MIC Staphylococcus aureus-SMITH (GC 4543) (Staphylococcus sp.; Staphylococcus aureus-SMITH (GC 4543)) | MIC Staphylococcus aureus (ATCC 29213) (Staphylococcus sp.; broth dilution, strain ATCC 29213) | MIC Staphylococcus aureus (GC 1131) (Staphylococcus sp.; broth dilution, strain GC 1131) | MIC Staphylococcus aureus (GC 3051) (Staphylococcus sp.; broth dilution, strain GC 3051) | MIC Staphylococcus aureus (GC 3053) (Staphylococcus sp.; broth dilution, strain GC 3053) | MIC Staphylococcus aureus (GC 4541) (Staphylococcus sp.; broth dilution, strain GC 4541) | MIC Staphylococcus aureus (GC 4542) (Staphylococcus sp.; broth dilution, strain GC 4542) | MIC Staphylococcus aureus (GC 4544) (Staphylococcus sp.; broth dilution, strain GC 4544) | MIC Staphylococcus aureus (GC 4545) (Staphylococcus sp.; broth dilution, strain GC 4545)
>32 µg/mL: MIC Enterococcus faecium (GC 2243) (Enterococcus sp.; Enterococcus faecium (GC 2243)) | MIC Enterococcus faecium (GC 4556) (Enterococcus sp.; Enterococcus faecium (GC 4556)) | MIC Enterococcus faecium (GC 2243) (Enterococcus sp.; broth dilution, 18 hours at 35° C., strain GC 2243) | MIC Enterococcus faecium (GC 4556) (Enterococcus sp.; broth dilution, 18 hours at 35° C., strain GC 4556)
8 µg/mL: MIC Streptococcus agalactiae (GC 4564) (Streptococcus sp.; Streptococcus agalactiae (GC 4564)) | MIC Streptococcus agalactiae (GC 4564) (Streptococcus sp.; broth dilution, strain GC 4564) | MIC Enterococcus faecium (GC 4557) (Enterococcus sp.; Enterococcus faecium (GC 4557)) | MIC Enterococcus faecium (GC 4557) (Enterococcus sp.; broth dilution, 18 hours at 35° C., strain GC 4557) | MIC Coagulase Negative Staphylococcus (GC 4547) (Staphylococcus sp.; Coagulase Negative Staphylococcus (GC 4547)) | MIC Coagulase Negative Staphylococcus (GC 4548) (Staphylococcus sp.; Coagulase Negative Staphylococcus (GC 4548)) | MIC Coagulase Negative Staphylococcus (GC 4549) (Staphylococcus sp.; Coagulase Negative Staphylococcus (GC 4549)) | MIC Staphylococcus haemolyticus (GC 4546) (Staphylococcus sp.; Staphylococcus haemolyticus (GC 4546))
